Earlier results as cited in article PMC7961996, “Small Immunomodulatory Molecules as Potential Therapeutics in Experimental Murine Models of Acute Lung Injury (ALI)/Acute Respiratory Distress Syndrome (ARDS)” (International Journal of Molecular Sciences, 2021).

Experiments:
[1] = system: murine macrophages and human peripheral blood monocytes-hPBMC; parameters: method as in PMID 22654663; conditions: in vitro; cited from earlier work
endotoxemia = system: endotoxemia; parameters: method as in PMID 22654663; conditions: in vivo; cited from earlier work

chitohexaose
LPS-induced inflammatory mediators such as TNF-α and IL-6 [1]: blocks lipopolysaccharide (LPS)-induced inflammatory mediators | endotoxemia (endotoxemia): reduces endotoxemia
